Starred links: 1 amine or outer side, 2 acyl side, 3 side chain; linkers in the order of their positions; H or OH if unused. Positions of bridges follow the written chain, without caps; N, C: chain ends. Non-standard residues stand in square brackets, D forms with d. Residues, ends and D or L forms follow the SMILES beside them. *: point of attachment. Trp(7-Me) = Cc1cccc2c(C[C@H](N)C(=O)O)c[nH]c12; X1 = O=C(CCCCN[*:3])N[C@@H](CS[*:2])C(=O)[*:1]; αMeLys(Me2) = CN(C)CCCC[C@](C)(N)C(=O)O; 2Nal = N[C@@H](Cc1ccc2ccccc2c1)C(=O)O; d2Nal = N[C@H](Cc1ccc2ccccc2c1)C(=O)O; AEF = NCCOc1ccc(C[C@H](N)C(=O)O)cc1; 3Pal = N[C@@H](Cc1cccnc1)C(=O)O; αMeL = CC(C)C[C@](C)(N)C(=O)O; Suc = O=C(CCC(=O)[*:2])[*:1]; Me2NCH2CH2 = CN(C)CC*; Aib = CC(C)(N)C(=O)O; Ahx = NCCCCCC(=O)O; Ava = NCCCCC(=O)O; Sar = CNCC(=O)O
Experiments:
[1] = biological target: T1, human interleukin-23 receptor (recombinant human IL-23R-Fc chimera) (Homo sapiens, UniProt Q5VWK5); assay: Human ELISA IL23/IL23R (assay for specific human IL23R antagonists); assay type: binding; details: Table 10; read-out: Human ELISA IL23/IL23R IC50
T1 construct: Fc (IgG Fc fusion)
Outline: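 Plates coated overnight at 4 °C with human IL23 ([…]), blocked, then serially diluted peptides added with recombinant human IL-23R-Fc (0.1 μg/ml final) for 60 min at room temperature. Bound receptor detected with anti-human IgG1-HRP and fluorogenic peroxidase substrate.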

[2] = system: IL-23 induced STAT3 signaling in HEK-Blue™ IL-23 cells; assay: IL-23 induced STAT3 signaling in HEK-Blue IL-23 cells (SEAP reporter); assay type: cell-based; details: human IL23 0.25 ng/ml, read-out: pSTAT3
Outline: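 HEK-Blue IL-23 cells (10,000/well) pre-incubated 60 min at 37 °C with serially diluted peptides, then stimulated overnight with human IL-23 (0.25 ng/ml final). STAT3-driven SEAP in supernatant detected with QUANTI-Blue after 45 min at RT (OD 620-655 nm); dose-response curves fitted.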

Pepsin = system: T2, Pepsin; assay: Protease stability in simulated gastric fluid (Pepsin-SGF, FaSSGF); assay type: in vitro ADME; details: simulated gastric fluid with pepsin (Pepsin-SGF), 60 min, 1 μM peptide, 37° C., read-out: FaSSGF 60 (min), remaining percent of peptide
T2 construct: purchased Merck Millipore
Outline: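 Peptides at 1 μM final in pepsin-containing SGF at 37° C, sampled at 0, 60, 120 and 240 min, quenched with ethanol (0.1% HCOOH). Analysed by LCMS/MS; percent remaining from peak area relative to time 0 (set to 100%).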

Pancreatin = assay: Protease stability in simulated intestinal fluid (Pancreatin-SIF, FaSSIF); assay type: in vitro ADME; details: 1 μM peptide, 37° C.; for remaining at 1 h, 1 µM: 60 min, read-out: FaSSIF 60 (min), remaining percent of peptide; for remaining at 2 h, 1 µM: 120 min, read-out: FaSSIF 120 (min), remaining percent of peptide; for remaining at 4 h, 1 µM: 240 min, read-out: FaSSIF 240 (min), remaining percent of peptide
Outline: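 Peptide (1 μM final) was incubated at 37° C in simulated intestinal fluid containing pancreatin (1 mg per 10 mL SIF concentrate). Samples were quenched with ethanol/0.1% HCOOH at 0, 60, 120 and 240 min and analysed by LC-MS/MS. Percent remaining is the peak area relative to time 0 (100%).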

SMILES	IC50 [1]	remaining at 1 h, 1 µM (Pepsin)	remaining at 1 h, 1 µM (Pancreatin)	remaining at 2 h, 1 µM (Pancreatin)	remaining at 4 h, 1 µM (Pancreatin)	IC50 [2]
Cc1cccc2c(C[C@@H]3NC(=O)[C@H]([C@@H](C)O)NC(=O)[C@H](CC(N)=O)NC(=O)[C@@H]4CSSC[C@H](NC(=O)[C@H](CCC(N)=O)NC3=O)C(=O)N[C@@H](Cc3ccc(OCCN(C)C)cc3)C(=O)N[C@@H](Cc3ccc5ccccc5c3)C(=O)NC(C)(C)C(=O)N[C@H](C(=O)N[C@@H](CO)C(=O)N[C@@H](Cc3c[nH]cn3)C(N)=O)CCC(=O)NCCCCC(=O)N4)c[nH]c12 [compound 43] ([Ava]CNT[Trp(7-Me)]QCY(Me2NCH2CH2)[2Nal][Aib]ESH-NH2; disulfide 2-7; lactam N-11)	330 pM	100%	83%	72%	67%	1310 pM
CC(=O)NCCCC[C@@H]1NC(=O)[C@H](Cc2c[nH]c3c(C)cccc23)NC(=O)[C@H]([C@@H](C)O)NC(=O)[C@H](CC(N)=O)NC(=O)[C@@H]2CSSC[C@H](NC1=O)C(=O)N[C@@H](Cc1ccc(OCCN(C)C)cc1)C(=O)N[C@@H](Cc1ccc3ccccc3c1)C(=O)N[C@@](C)(CC(C)C)C(=O)N[C@H](C(=O)N[C@@H](CC(N)=O)C(=O)N[C@@H](Cc1c[nH]cn1)C(N)=O)CCC(=O)NCCCCC(=O)N2 [compound 22] ([Ava]CNT[Trp(7-Me)]K(Ac)CY(Me2NCH2CH2)[2Nal][αMeL]ENH-NH2; disulfide 2-7; lactam N-11)	490 pM	60%	82%	79%	79%	1370 pM
CC(=O)N[C@H]1CCCCNC(=O)[C@@H]2CSSC[C@H](NC(=O)[C@H](CCC(N)=O)NC(=O)[C@H](Cc3c[nH]c4ccccc34)NC1=O)C(=O)N[C@@H](Cc1ccc(OCCN(C)C)cc1)C(=O)N[C@@H](Cc1ccc3ccccc3c1)C(=O)N[C@@](C)(CC(C)C)C(=O)N[C@H](C(=O)N[C@@H](CC(N)=O)C(=O)NCC(N)=O)CCC(=O)NCCCCC(=O)N2 [compound 31] (Ac-KWQCY(Me2NCH2CH2)[2Nal][αMeL]ENG-NH2; linker 1-4-8 via X1)	360 pM	99%	83%	72%	55%	5230 pM

Continued, in another order:

IC50 [1]	remaining at 1 h, 1 µM (Pepsin)	remaining at 1 h, 1 µM (Pancreatin)	remaining at 2 h, 1 µM (Pancreatin)	remaining at 4 h, 1 µM (Pancreatin)	SMILES	IC50 [2]
700 pM	0%	95%	89%	75%	C[C@H](NC(=O)[C@@H]1CC(=O)NCCCCCC(=O)N[C@H]2CSSC[C@H](NC(=O)[C@H](CCC(N)=O)NC(=O)[C@H](Cc3c[nH]c4ccccc34)NC(=O)CCCCNC2=O)C(=O)N[C@@H](Cc2ccc(OCCN)cc2)C(=O)N[C@@H](Cc2ccc3ccccc3c2)C(=O)NC(C)(C)C(=O)N1)C(=O)NCC(N)=O [compound 53] ([Ahx]C[Ava]WQC[AEF][2Nal][Aib]DAG-NH2; disulfide 2-6; lactam N-10)	60800 pM
520 pM	96%	99%	97%	96%	Cc1cccc2c(C[C@@H]3NC(=O)[C@H]([C@@H](C)O)NC(=O)[C@H](CC(N)=O)NC(=O)[C@@H]4CSSC[C@H](NC(=O)[C@H](CC(C)C)NC3=O)C(=O)N[C@@H](Cc3ccc(OCCN(C)C)cc3)C(=O)N[C@@H](Cc3ccc5ccccc5c3)C(=O)N[C@@](C)(CCCCN(C)C)C(=O)N[C@H](C(=O)N[C@@H](CC(N)=O)C(=O)N[C@@H](Cc3cccnc3)C(=O)N(C)CC(N)=O)CCCCNC(=O)CCC(=O)N4)c[nH]c12 [compound 154] (CNT[Trp(7-Me)]LCY(Me2NCH2CH2)[2Nal][αMeLys(Me2)]KN[3Pal][Sar]-NH2; disulfide 1-6; linker N-10 via Suc)	80 pM
640 pM	101%	95%	99%	97%	CC(=O)NCCCC[C@@H]1NC(=O)[C@H](Cc2c[nH]c3c(C)cccc23)NC(=O)[C@@H](NC(C)=O)CCCCNC(=O)[C@@H]2CSSC[C@H](NC1=O)C(=O)N[C@@H](Cc1ccc(OCCN(C)C)cc1)C(=O)N[C@H](Cc1ccc3ccccc3c1)C(=O)N[C@@](C)(CCCCN(C)C)C(=O)N[C@H](C(=O)N[C@@H](CC(N)=O)C(=O)N[C@@H](Cc1cccnc1)C(=O)N(C)CC(N)=O)CCC(=O)NCCCCC(=O)N2 [compound 149] (Ac-K[Trp(7-Me)]K(Ac)CY(Me2NCH2CH2)[d2Nal][αMeLys(Me2)]EN[3Pal][Sar]-NH2; linker 1-4-8 via X1)	40 pM

From patent US20260258084A1, “New Peptides as Selective IL-23 Receptor Antagonists” (Sanofi, priority 2022, published 2026)
